The values below come from the supplement of paper PMC4862054.

What all share (details): incubation time: 72 h
One assay deals with SK-BR-3. Put plainly: normalised viability (% of control), CellTiter-Blue; higher = more viable cells (about 100 = DMSO control). The procedure, abridged:
(§1)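 Plates were quality-checked by Z'-factor and normalised to vehicle (100) and a positive kill control (0). The underlying assay incubated breast cancer cell lines for 72 h on 384-well plates with compound, then added 2.5 µl CellTiter-Blue for 2 h at 37 °C and read at 560/590 nm. The value is normalised viability at a single listed concentration of the series.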
Background: Alamar Blue is a resazurin reagent that responds to reducing activity.

Another assay relates to BT-549. The description is as above. The method in brief: as §1
In assay [1] the test system is MDA-MB-231. Described as above. The method in brief: as §1
A further assay has as its system CAL-120. Described as above. The method in brief: as §1
For a further assay, the system named is Hs578T. The assay is described as above. The method in brief: as §1
The next assay relates to CAL-148. The description is as above. The method in brief: as §1
For another assay, the system named is MDA-MB-436. Described as above. The procedure, abridged: as §1
The subject of assay [2] is HCC1143. Described as above. The procedure, abridged:
as §1

In assay [3] the test system is HDQ-P1. The assay is described as above. The procedure, abridged:
as §1

Another assay relates to CAL-51. The assay is described as above. The procedure, abridged:
as §1

The test system of assay [4] is HCC1937. Described as above. The method in brief: as §1
A further assay relates to MFM-223. The assay is described as above. The method in brief: as §1
Another assay concerns DU-4475. The description is as above. The procedure, abridged: as §1
In another assay the test system is MDA-MB-453. The assay is described as above. The procedure, abridged: as §1
Assay [5] relates to BT-474. Described as above. The procedure, abridged:
as §1

A further assay deals with CAL-85-1. The assay is described as above. The procedure, abridged:
as §1

Another assay deals with HCC1599. The assay is described as above. The procedure, abridged: as §1
A further assay concerns MDA-MB-468. Described as above. The procedure, abridged:
as §1

In assay [6] the test system is MDA-MB-231. Put plainly: drug sensitivity score (DSS), CellTiter-Glo (DSS (AUC-based score)); higher = stronger drug effect (viability inhibition or cytotoxicity); extreme values may be limits of the assay. The procedure, abridged: (§2)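 Each compound occupied 5 concentrations in 10-fold steps over its own 10,000-fold range in 384-well plates, into which breast cancer cell lines were seeded as 20 µl suspension. Following 72 h of incubation, CellTox Green fluorescence (485/520 nm) was measured, and CellTiter-Glo luminescence was measured after 10 min at room temperature. Plates were individually normalised to 0.1 % DMSO and a positive kill control. From the area under the fitted dose-response curve, a drug sensitivity score was calculated.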
For orientation: ATP-based viability assays read luminescence as a measure of living cells.

Another assay has as its system MCF-10A. Described as above. The method in brief:
as §2

Assay [7] has as its system HCC1143. The assay is described as above. The procedure, abridged: as §2
For assay [8], the system named is HDQ-P1. The description is as above. The procedure, abridged:
as §2

Assay [9] concerns HCC1937. The assay is described as above. The method in brief: as §2
Assay [10] concerns BT-474. Described as above. The method in brief: as §2

Consider `CC(C)C[C@H](NC(=O)[C@H](CCc1ccccc1)NC(=O)CN1CCOCC1)C(=O)N[C@@H](Cc1ccccc1)C(=O)N[C@@H](CC(C)C)C(=O)[C@@]1(C)CO1` [Carfilzomib], for which the normalised viability in the assay on SK-BR-3 (1 nM) amounted to 97.8%; with SK-BR-3 (100 nM), 16.7%; in the assay with SK-BR-3 (1000 nM) it was 12.6%; with BT-549 (1 nM), 90%; with BT-549 (100 nM), 6.79%; in the assay on BT-549 (1000 nM) it was 5.9%. Moreover, the normalised viability in the assay on MDA-MB-231 [1] (1 nM) worked out at 105%; with MDA-MB-231 [1] (100 nM) it was 2.47%; in the assay with MDA-MB-231 [1] (1000 nM), 7.05%; with CAL-120 (1 nM), 100%; in the assay with CAL-120 (100 nM) it was 4.54%; with CAL-120 (1000 nM) it was 2.9%. Also, the normalised viability stood at 126% in the assay on Hs578T (1 nM); 1.45% in the assay with Hs578T (100 nM); 1.15% in the assay with Hs578T (1000 nM); 101% in the assay on CAL-148 (0.3 nM); 97.8% with CAL-148 (3 nM); 94.5% in the assay on CAL-148 (10 nM). Besides, the normalised viability worked out at 96.8% in the assay with MDA-MB-436 (1 nM); 6.97% in the assay on MDA-MB-436 (100 nM); 10.9% with MDA-MB-436 (1000 nM); 91.9% in the assay on HCC1143 [2] (1 nM); 23.9% with HCC1143 [2] (100 nM); 14.9% with HCC1143 [2] (1000 nM). Also, the normalised viability came to 105% with HDQ-P1 [3] (0.3 nM); 98.9% with HDQ-P1 [3] (3 nM); 56.7% with HDQ-P1 [3] (10 nM); 111% with CAL-51 (0.3 nM); 102% with CAL-51 (3 nM); 81.4% in the assay with CAL-51 (10 nM). Further, the normalised viability in the assay with HCC1937 [4] (1 nM) stood at 74%; in the assay with HCC1937 [4] (100 nM), 5.98%; in the assay with HCC1937 [4] (1000 nM), 11%; in the assay with MFM-223 (1 nM), 83.4%; with MFM-223 (100 nM), 13%; in the assay with MFM-223 (1000 nM), 14.4%. For the same compound, the normalised viability in the assay on DU-4475 (0.3 nM) came to 100%; with DU-4475 (3 nM), 88.3%; with DU-4475 (10 nM), 64.4%; in the assay with MDA-MB-453 (0.3 nM), 115%; with MDA-MB-453 (3 nM) it was 38.5%; with MDA-MB-453 (10 nM), 17.7%. Besides, the normalised viability with BT-474 [5] (1 nM) came to 107%; in the assay on BT-474 [5] (100 nM), 21.8%; in the assay with BT-474 [5] (1000 nM), 13.9%; in the assay with CAL-85-1 (0.3 nM), 107%; with CAL-85-1 (3 nM), 86%; in the assay on CAL-85-1 (10 nM), 72.1%. The normalised viability in the assay with HCC1599 (1 nM) is 106%; with HCC1599 (100 nM), 64.6%; in the assay with HCC1599 (1000 nM) it was 38.9%; in the assay with MDA-MB-468 (1 nM) it was 117%; with MDA-MB-468 (100 nM), 3.17%; in the assay with MDA-MB-468 (1000 nM), 2.35%. Moreover, the drug sensitivity score is 21.4 with MDA-MB-231 [6]; 12.2 in the assay with MCF-10A; 23.5 with HCC1143 [7]; 20.7 in the assay on HDQ-P1 [8]; 20.6 with HCC1937 [9]; 21.8 with BT-474 [10].
In the case of `CCc1cnn2c(NCc3ccc[n+]([O-])c3)cc(N3CCCC[C@H]3CCO)nc12` [Dinaciclib], the drug sensitivity score in the assay on MDA-MB-231 [6] is 25.4; in the assay on MCF-10A it was 12.9; in the assay with HCC1143 [7] it was 19.1; with HDQ-P1 [8], 18.2; in the assay with HCC1937 [9] it was 14.9; in the assay with BT-474 [10], 18.3.
Turning to `Cc1c(C(=O)Nc2ccc(N3C[C@@H](C)O[C@@H](C)C3)nc2)cccc1-c1ccc(OC(F)(F)F)cc1` [Erismodegib], the drug sensitivity score is 0 with MDA-MB-231 [6]; 0 with MCF-10A; 0 in the assay on HCC1143 [7]; 0.664 in the assay on HDQ-P1 [8]; 0 in the assay on HCC1937 [9]; 3.21 in the assay with BT-474 [10].
As for `COc1cc(Nc2ncc(F)c(Nc3ccc4c(n3)N(COP(=O)(O)O)C(=O)C(C)(C)O4)n2)cc(OC)c1OC` [Fostamatinib], the drug sensitivity score is 6.92 with MDA-MB-231 [6]; 7.38 in the assay with MCF-10A; 1.25 in the assay with HCC1143 [7]; 2.19 with HDQ-P1 [8]; 1.88 with HCC1937 [9]; 4.12 with BT-474 [10].
